Results reported in the supplement of paper PMC10307832.

Columns and labels:
Test in all cases: relative viability (nuclei count vs DMSO), 5 days (fraction); higher = more cells survive
A549 = system: A549
Procedure, shortened: (§1)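 Lung cancer cell lines were pin-tool dosed in 1536-well plates on the day after seeding, with either a lone drug or a fixed anchor-drug dose plus five library-drug doses (not always all listed) in √10 steps. Nuclei were counted on 4× images after 5 days. Relative viability is the ratio of treated-well to vehicle-well nuclei counts, with each value a median of duplicate plates.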

NCI-H2009 = system: NCI-H2009
Procedure, shortened: as §1

NCI-H661 = system: NCI-H661
Procedure, shortened: as §1

NCI-H1703 = system: NCI-H1703
Procedure, shortened: as §1

EBC-1 = system: EBC-1
Procedure, shortened: as §1

IA-LM = system: IA-LM
Procedure, shortened: as §1

NCI-H460 = system: NCI-H460
Procedure, shortened: as §1

Calu-6 = system: Calu-6
Procedure, shortened: as §1

NCI-H1299 = system: NCI-H1299
Procedure, shortened: as §1

HCC-78 = system: HCC-78
Procedure, shortened: as §1

O=c1cc(-c2cccc3c2Sc2ccccc2S3)oc(N2CCOCC2)c1 + C[C@@H](Oc1cc(-c2cnn(C3CCNCC3)c2)cnc1N)c1c(Cl)ccc(F)c1Cl [Crizotinib] (partner 1 µM)
relative viability (A549; first compound 0.08 µM): 0.706
relative viability (A549; first compound 0.253 µM): 1.11
relative viability (A549; first compound 0.8 µM): 0.765
relative viability (A549; first compound 2.53 µM): 0.691
relative viability (A549; first compound 8 µM): 0.578
relative viability (NCI-H2009; first compound 0.08 µM): 1.02
relative viability (NCI-H2009; first compound 0.253 µM): 1.02
relative viability (NCI-H2009; first compound 0.8 µM): 1.05
relative viability (NCI-H2009; first compound 2.53 µM): 0.957
relative viability (NCI-H2009; first compound 8 µM): 1.03
relative viability (NCI-H661; first compound 0.08 µM): 1.15
relative viability (NCI-H661; first compound 0.253 µM): 1.04
relative viability (NCI-H661; first compound 0.8 µM): 1.13
relative viability (NCI-H661; first compound 2.53 µM): 0.939
relative viability (NCI-H661; first compound 8 µM): 0.958
relative viability (NCI-H1703; first compound 0.08 µM): 0.463
relative viability (NCI-H1703; first compound 0.253 µM): 0.519
relative viability (NCI-H1703; first compound 0.8 µM): 0.99
relative viability (NCI-H1703; first compound 2.53 µM): 1.01
relative viability (NCI-H1703; first compound 8 µM): 0.777
relative viability (EBC-1; first compound 0.08 µM): 0.212
relative viability (EBC-1; first compound 0.253 µM): 0.175
relative viability (EBC-1; first compound 0.8 µM): 0.156
relative viability (EBC-1; first compound 2.53 µM): 0.182
relative viability (EBC-1; first compound 8 µM): 0.26
relative viability (IA-LM; first compound 0.08 µM): 0.899
relative viability (IA-LM; first compound 0.253 µM): 0.971
relative viability (IA-LM; first compound 0.8 µM): 0.847
relative viability (IA-LM; first compound 8 µM): 0.9
relative viability (NCI-H460; first compound 0.08 µM): 1
relative viability (NCI-H460; first compound 0.8 µM): 0.761
relative viability (NCI-H460; first compound 2.53 µM): 1.12
relative viability (NCI-H460; first compound 8 µM): 1.79
relative viability (Calu-6; first compound 0.08 µM): 0.725
relative viability (Calu-6; first compound 0.253 µM): 0.839
relative viability (Calu-6; first compound 0.8 µM): 0.969
relative viability (Calu-6; first compound 2.53 µM): 0.692
relative viability (Calu-6; first compound 8 µM): 0.733
relative viability (NCI-H1299; first compound 0.08 µM): 0.999
relative viability (NCI-H1299; first compound 0.253 µM): 0.977
relative viability (NCI-H1299; first compound 0.8 µM): 1
relative viability (NCI-H1299; first compound 2.53 µM): 0.956
relative viability (NCI-H1299; first compound 8 µM): 0.835
relative viability (HCC-78; first compound 0.08 µM): 0.286
relative viability (HCC-78; first compound 0.253 µM): 0.34
relative viability (HCC-78; first compound 0.8 µM): 0.291
relative viability (HCC-78; first compound 2.53 µM): 0.342
relative viability (HCC-78; first compound 8 µM): 0.34

COc1nc(C)cnc1NS(=O)(=O)c1cccnc1-c1ccc(-c2nnco2)cc1 [Zibotentan] + Cc1nc(NC(=O)N2CCC[C@H]2C(N)=O)sc1-c1ccnc(C(C)(C)C(F)(F)F)c1 [Alpelisib] (partner 2 µM)
relative viability (A549; first compound 0.08 µM): 0.852
relative viability (A549; first compound 0.253 µM): 0.578
relative viability (A549; first compound 0.8 µM): 0.704
relative viability (A549; first compound 2.53 µM): 0.88
relative viability (NCI-H2009; first compound 0.08 µM): 1.14
relative viability (NCI-H2009; first compound 0.253 µM): 1.1
relative viability (NCI-H2009; first compound 0.8 µM): 1.18
relative viability (NCI-H2009; first compound 2.53 µM): 1.2
relative viability (NCI-H661; first compound 0.08 µM): 0.717
relative viability (NCI-H661; first compound 0.253 µM): 0.49
relative viability (NCI-H661; first compound 0.8 µM): 0.569
relative viability (NCI-H661; first compound 2.53 µM): 0.578
relative viability (NCI-H1703; first compound 0.08 µM): 0.363
relative viability (NCI-H1703; first compound 0.253 µM): 0.386
relative viability (NCI-H1703; first compound 0.8 µM): 0.464
relative viability (NCI-H1703; first compound 2.53 µM): 0.237
relative viability (EBC-1; first compound 0.08 µM): 0.826
relative viability (EBC-1; first compound 0.253 µM): 0.855
relative viability (EBC-1; first compound 0.8 µM): 0.944
relative viability (EBC-1; first compound 2.53 µM): 0.857
relative viability (IA-LM; first compound 0.08 µM): 0.799
relative viability (IA-LM; first compound 0.253 µM): 0.725
relative viability (IA-LM; first compound 0.8 µM): 0.646
relative viability (IA-LM; first compound 2.53 µM): 0.812
relative viability (NCI-H460; first compound 0.08 µM): 0.58
relative viability (NCI-H460; first compound 0.8 µM): 0.57
relative viability (NCI-H460; first compound 2.53 µM): 0.452
relative viability (Calu-6; first compound 0.08 µM): 1
relative viability (Calu-6; first compound 0.253 µM): 0.986
relative viability (Calu-6; first compound 0.8 µM): 0.98
relative viability (Calu-6; first compound 2.53 µM): 1.1
relative viability (NCI-H1299; first compound 0.08 µM): 1.06
relative viability (NCI-H1299; first compound 0.253 µM): 1.05
relative viability (NCI-H1299; first compound 0.8 µM): 1.06
relative viability (NCI-H1299; first compound 2.53 µM): 1.07
relative viability (HCC-78; first compound 0.08 µM): 0.342
relative viability (HCC-78; first compound 0.253 µM): 0.342
relative viability (HCC-78; first compound 0.8 µM): 0.23
relative viability (HCC-78; first compound 2.53 µM): 0.374
